Laboratory results as given in patent publication US20050112551A1, “Dual assay for evaluating activity and cytotoxicity of compounds in the same population of cells” (AGOURON PHARMACEUTICALS, INC., priority 2003, published 2005).
Like-named read-outs stand apart in the source and are kept apart here.

Legend:
[1] = test system: HIV-1 RF infection of CEM-SS cells; experiment: HIV-1 RF cell protection assay (XTT dye reduction), antiviral activity; type: cell-based; settings: for HIV-1 RF Cell Protection Assay TI (therapeutic index, CC50/EC50): CC50 divided by EC50, cell protection assay; for EC50: read-out: HIV-1 RF Cell Protection Assay EC50
[2] = HIV-1 RF cell protection assay (XTT dye reduction), cytotoxicity in uninfected cells; type: cell-based; settings: human
Procedure: (§1) The antiviral activities of compounds were also evaluated in cell protection assays by the XTT dye reduction method. CEM-SS subject cells were infected with HIV-1 RF virus at an moi of 0.025 to 0.819 or mock infected with medium only and added at 2×10^4 cells per well into 96-well plates containing half-log dilutions of test compounds. Six days later, 50 μl of XTT (1 mg/ml XTT tetrazolium, […] phenazine methosulfate) was added to the wells and the plate was reincubated for four hours. Viability, as determined by the amount of XTT formazan produced, was quantified spectrophotometrically by absorbance at 450 nm.
(§2) Data from cell protection assays were expressed as the percent of formazan produced in compound-treated cells compared to formazan produced in wells of uninfected, compound-free cells.

[3] = test system: VSV/HIVLuc infection of HeLa HRLuc cells
in vitro = settings: human
[4] = test system: VSV/HIVLuc infection of HeLa HRLuc cells; experiment: microbe, parasite or virus in culture; settings: Vesicular stomatitis virus, 72 h, read-out: Dual Reporter Assay EC50
CEM-SS cells = experiment: HIV-1 RF cell protection assay (XTT dye reduction), cytotoxicity in uninfected cells; type: cell-based; settings: XTT dye reduction, uninfected CEM-SS cells, six days; mean of 2 to 3 experiments
Procedure: as §1, §2

HeLa HRLuc cells = settings: read-out: Dual Reporter Assay CC50; Renilla luciferase reporter in infected HeLa HRLuc cells, ~72 hours; mean of 2 to 3 experiments
[5] = Human immunodeficiency virus 1, 144 h, XTT dye reduction six days after infection of CEM-SS cells with HIV-1 RF, mean of 2 to 3 experiments
[6] = XTT dye reduction, uninfected CEM-SS cells, six days, mean of 2 to 3 experiments, read-out: HIV-1 RF Cell Protection Assay CC50
[7] = uninfected (mock-infected) CEM-SS cells, XTT dye reduction, uninfected CEM-SS cells, six days, mean of 2 to 3 experiments, read-out: HIV-1 RF Cell Protection Assay CC50

Structure (SMILES) | HIV-1 RF Cell Protection Assay TI (therapeutic index, CC50/EC50) [1] | EC50 [1, 5] [µM] | CC50 at 6 days [2, 6] [µM] | Dual Reporter Assay TI (therapeutic index, CC50/EC50) [3] | CC50 (in vitro) [µM] | EC50 [4] [µM] | CC50 at 6 days [2] [µM] | EC50 ([1]; Human immunodeficiency virus 1, CEM-SS, 144 h) [µM] | CC50 at 6 days [2, 7] [µM] | EC50 ([1]; XTT dye reduction six days after infection of CEM-SS cells with HIV-1 RF, mean of 2 to 3 experiments) [µM] | CC50 (CEM-SS cells) [µM] | EC50 ([3]; read-out: Dual Reporter Assay EC50) [µM] | CC50 (HeLa HRLuc cells) [µM]
O=C1Nc2ccc(Cl)cc2[C@@](C#CC2CC2)(C(F)(F)F)O1 [EFV, efavirenz] | 38,266 | 0.0015 | 57.4 | 179,250 | 71.7 | 0.0004 | – | – | – | – | – | – | –
Cc1ccnc2c1NC(=O)c1cccnc1N2C1CC1 [NVP, Nevirapine] | >30,303 | 0.033 | > 1000 | >1032 | > 32 | 0.031 | – | – | – | – | – | – | –
Nc1ccn([C@@H]2CS[C@H](CO)O2)c(=O)n1 [Compound 3TC, lamivudine] | >15,384 | 0.065 | – | >229 | > 32 | 0.14 | > 1000 | – | – | – | – | – | –
O=c1[nH]cnc2c1ncn2[C@H]1CC[C@@H](CO)O1 [ddl, didanosine] | – | – | – | – | > 32 | 0.59 | – | 12.9 | > 32 | – | – | – | –
CC(C)c1nc(COC(N)=O)n(Cc2ccncc2)c1Sc1cc(Cl)cc(Cl)c1 [CPV, Capravirine] | 47,214 | 0.0014 | 66.1 | 24,266 | 36.4 | 0.0015 | – | – | – | – | – | – | –
O=C(O)C(=O)CC(=O)c1cccn1Cc1ccc(F)cc1 [Compound L-731988] | 55.6 | – | – | 92.2 | – | – | – | – | – | 4.5 | 250 | 1.8 | 166
Cc1cn([C@H]2C[C@H](N=[N+]=[N-])[C@@H](CO)O2)c(=O)[nH]c1=O [AZT, 3′-Azido-3′-deoxythymidine] | >40,000 | 0.008 | – | >11,034 | > 320 | 0.029 | – | – | > 320 | – | – | – | –
CC(C)Nc1cccnc1N1CCN(C(=O)c2cc3cc(NS(C)(=O)=O)ccc3[nH]2)CC1 [DLV, delavirdine] | 6,961 | 0.013 | 90.5 | >5000 | > 100 | 0.02 | – | – | – | – | – | – | –
Cc1cn([C@H]2C=C[C@@H](CO)O2)c(=O)[nH]c1=O [d4T, stavudine] | >64 | 0.51 | > 32 | >119 | > 32 | 0.27 | – | – | – | – | – | – | –
